Laboratory results as given in paper PMC10878086, “An RNA replicon system to investigate promising inhibitors of feline coronavirus” (Journal of Virology, 2024).
Values joined by “and” are separate entries in the source; they are usually repeats but may differ in a detail not shown here. Identical values can stand only once. “Also recorded” adds a separate entry of the source. Counter-ions that a name gives are not always drawn. Like-named read-outs stand apart in the source and are kept apart here.

Legend:
[1] = test system: serotype I FCoV replicon RNA in BHK-F-Rep cells; assay: microbe, parasite or virus in culture; assay type: cell-based, feline coronavirus (serotype I FECV field strain); conditions: for IC50: BHK-F-Rep cells, median GFP intensity
Method: The BHK-F-Rep cells would specifically allow the evaluation of inhibitors that target viral replication, which includes basic processes such as RNA synthesis and viral polyprotein processing. […] GFP expression was assessed by flow cytometry. […] In addition to GFP detection, immunofluorescence staining of the N-protein was performed as a control of the replication inhibition in an inhibitor experiment (Fig. 2D).
For each inhibitor test, the BHK-F-Rep was cultured in T75 or T150 flasks, washed once with PBS, cells detached with Gibco TrypLE Express (Trypsin; Thermo Fisher Scientific), and then seeded in 12-well plates (25,000 cells/well) in 1 mL/well of cell-culture medium (MEM +10% FBS +50 U/mL Pen/Strep). Directly after seeding, the inhibitor was added to the cells. The plates were incubated for 96 hours at 37°C with 5% CO2.
To assess the GFP expression in BHK and Fcwf-4 cells, the supernatant was removed, the cells were washed once with PBS and then detached with trypsin and transferred to a 96-well plate. The plate was centrifuged at 1,700 rpm for 5 minutes and the supernatant discarded. Cells were once washed again with PBS and again centrifuged at 1,700 rpm for 5 minutes and the supernatant was discarded. For the replicon conditions, the cells were then stained with the LIVE/DEAD Fixable Aqua Dead Cell Stain Kit for 405 nm excitation (Invitrogen) according to the manufacturer’s instructions. As the dead cell control, one of the samples was placed at 60°C for 20 minutes and then stained. After staining, the cells were washed with PBS and centrifuged (1,700 rpm for 5 minutes), and the supernatant was discarded. For the Fcwf-4 cells infected with the recFCoV-GFP, the staining and washing step was not performed. Then, all the cells were washed with PBS before being resuspended in 200 µL PBS and transferred to Falcon 5 mL round-bottom tubes with cell strainer cap (Corning Incorporated) and kept in the dark on ice. Samples were acquired in Cytek Aurora with SpectroFlo Software Version 3.1.0 and analyzed using FlowJo software (FlowJo_v108.1).
Instead, to monitor inhibition, we determined the percent of GFP-positive cells. In either case, the median intensity of the GFP signal or the percentage of GFP-positive cells was normalized to the measurements of untreated conditions, by defining the untreated results of each triplicate as 100%. The value was then subtracted by 100 to get the value representing the percentage of inhibition.
All conditions were tested in triplicates on three different days always including a negative control. Statistical analysis and generation of graphs were performed using GraphPad Prism version 9.3.1 for Windows. The same as CC50, 50% inhibitory concentration (IC50) was determined in GraphPad Prism version 9.3.1 for Windows.

[2] = In vitro cytotoxicity assay (CytoTox-Glo) on BHK-F-Rep cells; assay type: cell-based, hamster; conditions: hamster
Method: (§1) To define cytotoxic concentrations of the individual inhibitors, cytotoxicity assay with the CytoTox-Glo Cytotoxicity Assay (Promega) was performed according to the manufacturer’s instructions. As a positive control, 75 µg/well of cycloheximide was used. The inhibitors were diluted in DMSO to concentrations so that 2 µL/well could be added to reach the tested concentrations. For luminescence detection, a Hidex Sense with the HidexPlateReader Software 1.0.0 was used. Detection parameters were set for luminescence detection with an infrared cutoff of 1 second. As described by Promega, the difference of viable vs dead cells was calculated in Microsoft Excel 2016, and 50% of cytotoxic concentration (CC50) was determined in GraphPad Prism version 9.3.1 for Windows. The data were fitted to a nonlinear regression curve with log(inhibitor) vs normalized response with variable slope.

BHK-F-Rep cells = assay: as above; assay type: cell-based, hamster
Method: as §1

[3] = test system: recFCoV-GFP (serotype I FIPV strain Black); assay: Inhibitor test with recFCoV-GFP-infected Fcwf-4 cells, viral titers in supernatant (TCID50); assay type: cell-based, feline infectious peritonitis virus; conditions: read-out: IC50 recFCoV-GFP viral titers
Source text: (§2) Finally, we assessed GC376 and Remdesivir individually or in combination in a virus infection system. We used the previously described recombinant recFCoV-GFP that is based on the laboratory-adapted serotype I FIPV strain Black and contains the GFP gene as a replacement for the accessory genes 3a–c ([39]). Using this virus, we could measure inhibition by assessing GFP expression or by virus titration. However, the assessment of GFP expression by measuring the median fluorescent intensity, as we did for BHK-F-rep cells, was not possible since recFCoV-GFP-infected Felis catus whole fetus 4 (Fcwf-4) cells died before the reduction of GFP expression was observable. Instead, we determined the number of GFP-positive cells to monitor inhibition (Fig. 5A through C). In parallel, we determined the virus titers released into the cell culture supernatant from inhibitor-treated and infected cells (Fig. 5A through C). […] The results are shown in Fig. 5C and can be compared with Fig. 4A (BHK-F-Rep inhibition) and IC50 values for the different experimental systems are shown in Table 2. […]
All conditions were tested in triplicates on three different days always including a negative control. […] The selectivity index (SI) was calculated in Microsoft Excel 2016 as follows: SI = CC50/IC50.

[4] = test system: recFCoV-GFP (serotype I FIPV strain Black); assay: Inhibitor test with recFCoV-GFP-infected Fcwf-4 cells, flow cytometry of GFP-positive cells; assay type: cell-based, feline infectious peritonitis virus; conditions: read-out: IC50 recFCoV-GFP flow cytometry
Source text: as §2
To assess the GFP expression in BHK and Fcwf-4 cells, the supernatant was removed, the cells were washed once with PBS and then detached with trypsin and transferred to a 96-well plate. […] Samples were acquired in Cytek Aurora with SpectroFlo Software Version 3.1.0 and analyzed using FlowJo software (FlowJo_v108.1). […]

[5] = Cell viability testing in recFCoV-GFP infected Fcwf-4 cells; assay type: cell-based; conditions: cat (Felis catus)
Source text: Read-out as with the BHK-F-Rep cells done via flow cytometry and detection of GFP-positive cells (relative Inhibition) including IC50 values are shown in black with the left y-axis. As with the BHK-F-Rep cells, data shown on cell viability testing in the recFCoV-GFP infected Fcwf-4 cells are shown in black with the right y-axis including CC50 values. Additional data on viral titers of the recFCoV-GFP infected Fcwf-4 cells treated with the inhibitors and corresponding IC50 values are shown in red. The black and red lines in the graphs represent the mean value of the data collected from three independent experiments of individual drugs or their combination, respectively. The gray and red shaded areas represent the standard error of the mean.
To define cytotoxic concentrations of the individual inhibitors, cytotoxicity assay with the CytoTox-Glo Cytotoxicity Assay (Promega) was performed according to the manufacturer’s instructions. As a positive control, 75 µg/well of cycloheximide was used. […] For luminescence detection, a Hidex Sense with the HidexPlateReader Software 1.0.0 was used. Detection parameters were set for luminescence detection with an infrared cutoff of 1 second. As described by Promega, the difference of viable vs dead cells was calculated in Microsoft Excel 2016, and 50% of cytotoxic concentration (CC50) was determined in GraphPad Prism version 9.3.1 for Windows. […]

[6] = Alphacoronavirus 1, 96 h, 96 hours, flow cytometry

## CCN(CC)Cc1cc(Nc2ccnc3cc(Cl)ccc23)ccc1O [Amodiaquine, Amodiaquine dihydrochloride]
[1]; 96 hours, flow cytometry, in words
  inhibitory effect on BHK-F-Rep cells: did not observe an inhibitory effect; also recorded: did not show any inhibitory effect
[1]; [6]
  IC50: > 40000 nM
[2]
  CC50: 47200 nM

## CC(C)C[C@H](NC(=O)OCc1ccccc1)C(=O)N[C@@H](CC1CCNC1=O)C(O)S(=O)(=O)O (stereo partly drawn) [GC376]
[1]; 96 hours, flow cytometry, read-out: IC50
  IC50: < 1000 nM and 990 nM
BHK-F-Rep cells
  CC50: > 200000 nM
[3]; Fcwf-4 cells, MOI 0.01, 48 hours, TCID50 of supernatant
  IC50: 1010 nM
[4]; Fcwf-4 cells, MOI 0.01, 48 hours, GFP-positive cells
  IC50: 840 nM

## CC(C)C[C@H](NC(=O)OCc1ccccc1)C(=O)N[C@@H](C[C@@H]1CCNC1=O)C(O)S(=O)(=O)[O-].[Na+] (stereo partly drawn) [GC376]
[1]; two consecutive treatments of 96 hours with 20 µM
  GFP expression of BHK-F-Rep cells after treatment (replicon-cured cell line): undetectable

## CC(C)(C)[C@H](NC(=O)C(F)(F)F)C(=O)N1C[C@H]2[C@@H]([C@H]1C(=O)N[C@H](C#N)C[C@@H]1CCNC1=O)C2(C)C [Nirmatrelvir]
[1]; [6]
  IC50: < 1000 nM
[1]; 96 hours, flow cytometry
  IC50: 780 nM
[2]
  CC50: > 200000 nM

## CCC(CC)COC(=O)[C@H](C)N[P@](=O)(OC[C@H]1O[C@@](C#N)(c2ccc3c(N)ncnn23)[C@H](O)[C@@H]1O)Oc1ccccc1 [Remdesivir]
[2]
  CC50: 99100 nM
[5]
  CC50 at 48 h: > 200000 nM
[3]; Alphacoronavirus 1, 48 h
  IC50: 1500 nM
[4]; Alphacoronavirus 1, 48 h
  IC50: 1150 nM
